In patent US8530667B2, “Herbicides” (Syngenta Limited, priority 2007, dated 2013):

Columns and labels:
Type in all cases: in vivo
[1] = tested on: Digitaria sanguinalis (DIGSA); assay: Example A post-emergence herbicidal activity, glasshouse pot test; details: Rate 125 g/ha, evaluated 14 or 15 days later, read-out: Post-Emergence Activity DIGSA (100=total damage to plant; 0=no damage to plant)
Description: (§1) Seeds of a variety of test species were sown in standard soil in pots. After cultivation for one day (pre-emergence) or after 10 days cultivation (post-emergence) under controlled conditions in a glasshouse, the plants were sprayed with an aqueous spray solution derived from the formulation of the technical active ingredient in 0.6 ml acetone and 45 ml formulation solution containing 10.6% Emulsogen EL (Registry number 61791-12-6), 42.2% N-methylpyrrolidone, 42.2% dipropylene glycol monomethyl ether (Registry number 34590-94-8) and 0.2% X-77 (Registry number 11097-66-8). The test plants were then grown in a greenhouse under optimum conditions until, 14 or 15 days later for post-emergence and 19 or 20 days for pre-emergence, the test was evaluated (100=total damage to plant; 0=no damage to plant). Alopecurus myosuroides (ALOMY), Avena fatua (AVEFA), Lolium perenne (LOLPE), Setaria faberi (SETFA), Digitaria sanguinalis (DIGSA), Echinochloa crus-galli (ECHCG)

[2] = tested on: Setaria faberi (SETFA); assay: as above; details: Rate 125 g/ha, evaluated 14 or 15 days later, read-out: Post-Emergence Activity SETFA (100=total damage to plant; 0=no damage to plant)
Description: as §1

[3] = tested on: Echinochloa crus-galli (ECHCG); assay: as above; details: Rate 125 g/ha, evaluated 14 or 15 days later, read-out: Post-Emergence Activity ECHCG (100=total damage to plant; 0=no damage to plant)
Description: as §1

[4] = tested on: Alopecurus myosuroides (ALOMY); assay: as above; details: Rate 125 g/ha, evaluated 14 or 15 days later, read-out: Post-Emergence Activity ALOMY (100=total damage to plant; 0=no damage to plant)
Description: as §1

[5] = tested on: Avena fatua (AVEFA); assay: as above; details: Rate 125 g/ha, evaluated 14 or 15 days later, read-out: Post-Emergence Activity AVEFA (100=total damage to plant; 0=no damage to plant)
Description: as §1

[6] = tested on: Lolium perenne (LOLPE); assay: as above; details: Rate 125 g/ha, evaluated 14 or 15 days later, read-out: Post-Emergence Activity LOLPE (100=total damage to plant; 0=no damage to plant)
Description: as §1

[7] = tested on: Digitaria sanguinalis (DIGSA); assay: Example A pre-emergence herbicidal activity, glasshouse pot test; details: Rate 250 g/ha, evaluated 19 or 20 days later, read-out: Pre-Emergence Activity DIGSA (100=total damage to plant; 0=no damage to plant)
Description: as §1

[8] = tested on: Setaria faberi (SETFA); assay: as above; details: Rate 250 g/ha, evaluated 19 or 20 days later, read-out: Pre-Emergence Activity SETFA (100=total damage to plant; 0=no damage to plant)
Description: as §1

[9] = tested on: Echinochloa crus-galli (ECHCG); assay: as above; details: Rate 250 g/ha, evaluated 19 or 20 days later, read-out: Pre-Emergence Activity ECHCG (100=total damage to plant; 0=no damage to plant)
Description: as §1

[10] = tested on: Alopecurus myosuroides (ALOMY); assay: as above; details: Rate 250 g/ha, evaluated 19 or 20 days later, read-out: Pre-Emergence Activity ALOMY (100=total damage to plant; 0=no damage to plant)
Description: as §1

[11] = tested on: Avena fatua (AVEFA); assay: as above; details: Rate 250 g/ha, evaluated 19 or 20 days later, read-out: Pre-Emergence Activity AVEFA (100=total damage to plant; 0=no damage to plant)
Description: as §1

[12] = tested on: Lolium perenne (LOLPE); assay: as above; details: Rate 250 g/ha, evaluated 19 or 20 days later, read-out: Pre-Emergence Activity LOLPE (100=total damage to plant; 0=no damage to plant)
Description: as §1

[13] = tested on: Setaria faberi (SETFA); assay: Example B pre-emergence herbicidal activity, glasshouse pot test; details: 312 h, Rate 250 g/ha, evaluated after 13 days, read-out: Pre-Emergence Activity SETFA (100=total damage to plant; 0=no damage to plant)
Description: (§2) Seeds of a variety of test species were sown in standard soil in pots. After cultivation for one day (pre-emergence) or after 8 days cultivation (post-emergence) under controlled conditions in a glasshouse (at 24/16° C., day/night; 14 hours light; 65% humidity), the plants were sprayed with an aqueous spray solution derived from the formulation of the technical active ingredient in acetone/water (50:50) solution containing 0.5% Tween 20 (polyoxyethelyene sorbitan monolaurate, CAS RN 9005-64-5). The test plants were then grown in a glasshouse under controlled conditions in a glasshouse (at 24/16° C., day/night; 14 hours light; 65% humidity) and watered twice daily. After 13 days for pre and post-emergence, the test was evaluated (100=total damage to plant; 0=no damage to plant). Alopecurus myosuroides (ALOMY), Avena fatua (AVEFA), Setaria faberi (SETFA), Echinochloa crus-galli (ECHCG) and Amaranthus retoflexus (AMARE)

[14] = tested on: Echinochloa crus-galli (ECHCG); assay: as above; details: 312 h, Rate 250 g/ha, evaluated after 13 days, read-out: Pre-Emergence Activity ECHCG (100=total damage to plant; 0=no damage to plant)
Description: as §2

[15] = tested on: Alopecurus myosuroides (ALOMY); assay: as above; details: 312 h, Rate 250 g/ha, evaluated after 13 days, read-out: Pre-Emergence Activity ALOMY (100=total damage to plant; 0=no damage to plant)
Description: as §2

[16] = tested on: Avena fatua (AVEFA); assay: as above; details: 312 h, Rate 250 g/ha, evaluated after 13 days, read-out: Pre-Emergence Activity AVEFA (100=total damage to plant; 0=no damage to plant)
Description: as §2

[17] = tested on: Amaranthus retoflexus (AMARE); assay: as above; details: Amaranthus retroflexus, 312 h, Rate 250 g/ha, evaluated after 13 days, read-out: Pre-Emergence Activity AMARE (100=total damage to plant; 0=no damage to plant)
Description: as §2

[18] = tested on: Setaria faberi (SETFA); assay: Example B post-emergence herbicidal activity, glasshouse pot test; details: 312 h, rate 250 g/ha, evaluated after 13 days, read-out: Post-emergence activity SETFA (100=total damage to plant; 0=no damage to plant)
Description: as §2

[19] = tested on: Echinochloa crus-galli (ECHCG); assay: as above; details: 312 h, rate 250 g/ha, evaluated after 13 days, read-out: Post-emergence activity ECHCG (100=total damage to plant; 0=no damage to plant)
Description: as §2

[20] = tested on: Alopecurus myosuroides (ALOMY); assay: as above; details: 312 h, rate 250 g/ha, evaluated after 13 days, read-out: Post-emergence activity ALOMY (100=total damage to plant; 0=no damage to plant)
Description: as §2

[21] = tested on: Avena fatua (AVEFA); assay: as above; details: 312 h, rate 250 g/ha, evaluated after 13 days, read-out: Post-emergence activity AVEFA (100=total damage to plant; 0=no damage to plant)
Description: as §2

[22] = tested on: Amaranthus retoflexus (AMARE); assay: as above; details: Amaranthus retroflexus, 312 h, rate 250 g/ha, evaluated after 13 days, read-out: Post-emergence activity AMARE (100=total damage to plant; 0=no damage to plant)
Description: as §2

Structure (SMILES)	pest or weed control at 125 g/ha [1]	pest or weed control at 125 g/ha [2]	pest or weed control at 125 g/ha [3]	pest or weed control at 125 g/ha [4]	pest or weed control at 125 g/ha [5]	pest or weed control at 125 g/ha [6]	pest or weed control at 250 g/ha [7]	pest or weed control at 250 g/ha [8]	pest or weed control at 250 g/ha [9]	pest or weed control at 250 g/ha [10]	pest or weed control at 250 g/ha [13]	pest or weed control at 250 g/ha [14]	pest or weed control at 250 g/ha [15]	pest or weed control at 250 g/ha [16]	pest or weed control at 250 g/ha [17]	pest or weed control at 250 g/ha [18]	pest or weed control at 250 g/ha [19]	pest or weed control at 250 g/ha [20]	pest or weed control at 250 g/ha [21]	pest or weed control at 250 g/ha [22]	also measured
Cc1sc(-c2ccc(Cl)cc2)cc1C1=C(OC(=O)C(C)(C)C)[C@@H]2[C@H](C1=O)[C@H]1CC[C@@H]2O1 (racemic) [Compound P1]	80%	90%	100%	70%	80%	60%	0%	0%	20%	30%	–	–	–	–	–	–	–	–	–	–	pest or weed control at 250 g/ha [11]: 0%; pest or weed control at 250 g/ha [12]: 30%
Cc1sc(-c2ccc(Cl)cc2)cc1C1=C(OC(=O)C(C)C)[C@@H]2[C@H](C1=O)[C@H]1CC[C@@H]2O1 (racemic) [Compound P2]	80%	80%	100%	90%	90%	70%	0%	0%	50%	30%	–	–	–	–	–	–	–	–	–	–	pest or weed control at 250 g/ha [11]: 0%; pest or weed control at 250 g/ha [12]: 50%
CCc1c(Br)sc(C)c1C1C(=O)[C@@H]2[C@H](C1=O)[C@H]1CC[C@@H]2O1 (stereo partly drawn) [Compound T14, 4-(5-bromo-4-ethyl-2-methyl-thiophen-3-yl)-10-oxa-tricyclo[5.2.1.0*2,6*]decane-3,5-dione]	60%	80%	100%	90%	100%	80%	70%	100%	90%	90%	–	–	–	–	–	–	–	–	–	–	pest or weed control at 250 g/ha [11]: 60%; pest or weed control at 250 g/ha [12]: 100%
CCc1sc(-c2ccc(Br)cc2)nc1C1C(=O)[C@@H]2[C@H](C1=O)[C@H]1CC[C@@H]2O1 (stereo partly drawn) [Compound T29]	–	–	–	–	–	–	–	–	–	–	90%	90%	50%	90%	20%	100%	100%	100%	100%	0%	–
CCc1sc(-c2ccc(Cl)cc2Cl)nc1C1C(=O)[C@@H]2[C@H](C1=O)[C@H]1CC[C@@H]2O1 (stereo partly drawn) [Compound T45]	–	–	–	–	–	–	–	–	–	–	100%	100%	90%	60%	0%	100%	100%	100%	100%	0%	–
Cc1sc(-c2ccc(C(C)C)cc2)nc1C1C(=O)[C@@H]2[C@H](C1=O)[C@H]1CC[C@@H]2O1 (stereo partly drawn) [Compound T51]	–	–	–	–	–	–	–	–	–	–	100%	100%	80%	90%	0%	90%	100%	90%	80%	0%	–
CSc1ccc(-c2nc(C3C(=O)[C@@H]4[C@H](C3=O)[C@H]3CC[C@@H]4O3)c(C)s2)cc1 (stereo partly drawn) [Compound T48]	–	–	–	–	–	–	–	–	–	–	90%	70%	40%	20%	0%	90%	100%	60%	40%	40%	–
Cc1sc(-c2ccc(Cl)s2)nc1C1C(=O)[C@@H]2[C@H](C1=O)[C@H]1CC[C@@H]2O1 (stereo partly drawn) [Compound T37]	–	–	–	–	–	–	–	–	–	–	90%	40%	30%	0%	0%	90%	90%	50%	10%	0%	–
CC(=O)OC1=C(c2nc(-c3ccc(Br)cn3)sc2C)C(=O)[C@H]2[C@@H]1[C@@H]1CC[C@H]2O1 (racemic) [Compound P5]	–	–	–	–	–	–	–	–	–	–	100%	90%	50%	70%	0%	100%	100%	90%	90%	0%	–
